Key:
OGT [1] = molecular target: T1, OGT (Homo sapiens, UniProt O15294); assay: Time-dependent inactivation of OGT with BZX compounds; type: biochemical
T1 construct: hOGT4.5 construct (spanning residues 313-1031 based on the numbering of the full length human protein); made in house
T1 sequence (O15294 313-1031 isoform O15294-3): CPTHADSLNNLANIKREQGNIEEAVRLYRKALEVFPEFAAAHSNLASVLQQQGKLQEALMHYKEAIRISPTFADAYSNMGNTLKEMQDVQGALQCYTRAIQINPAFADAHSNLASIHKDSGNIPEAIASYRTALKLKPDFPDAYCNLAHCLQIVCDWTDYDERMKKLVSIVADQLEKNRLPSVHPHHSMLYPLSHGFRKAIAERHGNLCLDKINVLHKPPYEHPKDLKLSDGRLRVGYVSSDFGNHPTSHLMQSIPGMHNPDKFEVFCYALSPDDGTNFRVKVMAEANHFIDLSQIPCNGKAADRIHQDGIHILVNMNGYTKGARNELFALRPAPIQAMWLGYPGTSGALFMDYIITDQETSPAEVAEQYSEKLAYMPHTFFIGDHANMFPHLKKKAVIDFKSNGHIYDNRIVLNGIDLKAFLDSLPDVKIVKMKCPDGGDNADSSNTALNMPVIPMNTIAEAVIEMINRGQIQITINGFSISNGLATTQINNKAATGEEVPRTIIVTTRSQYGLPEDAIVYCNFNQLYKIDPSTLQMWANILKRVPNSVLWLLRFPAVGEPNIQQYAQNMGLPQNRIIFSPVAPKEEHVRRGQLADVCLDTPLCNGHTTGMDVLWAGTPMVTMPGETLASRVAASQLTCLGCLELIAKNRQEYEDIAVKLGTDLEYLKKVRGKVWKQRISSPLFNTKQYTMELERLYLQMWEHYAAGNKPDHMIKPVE
Source text: Compound (1) was identified in a high-throughput screen of 65,000 compounds (FIG. 1). See, e.g., Gross et al., J. Am. Chem. Soc. (2005) 127:14588-14589. It contains a dicarbamate moiety that links two aromatic groups. This compound features a conjugated chemical structure and both carbamate carbonyls are potentially reactive. See, e.g., Alexander et al., Chem. Biol. (2005) 12:1179-1187. […] A small panel of related compounds was made from commercially available building blocks in order to identify structural features that might improve potency. Time-dependent inactivation studies were carried out in which OGT was preincubated with a three-fold excess of each compound for 5 min, and the mixture was then diluted 100-fold into buffer containing UDP-^14C-GlcNAc and the well-characterized peptide substrate, CKII. See, e.g., Kreppel et al., J. Biol. Chem. (1999) 274:32015-32022). Enzyme activity was measured using a previously developed peptide capture assay. See, e.g., Gross et al., J. Am. Chem. Soc. (2005) 127:14588-14589.
Each BZX compound (7.5 μM) was preincubated with 5 μM OGT in reaction buffer (125 mM NaCl, 1 mM EDTA, 20 mM potassium phosphate, pH 7.4, and 500 μM tris(hydroxypropyl)phosphine (THP)) at room temperature for different amount of time, then diluted 100-fold, mixed with substrates (6 μM UDP-^14C-GlcNAc and 500 μM CKII peptide (KKKYPGGSTPVSSANMM)) and allowed to react for another 2 h. Enzyme activity was tested with the peptide capture assay as previously reported. See, e.g., Gross et al., J. Am. Chem. Soc. (2005) 127:14588-14589. The final volume of each reaction was 20 μl, and the experiments were conducted in triplicate. The activities of OGT mutants were also tested in triplicate as previously reported. See, e.g., Gross supra.

OGT [2] = molecular target: T1, OGT; assay: IC50 assay, OGT peptide-capture assay; type: biochemical; conditions: peptide-capture assay, different concentrations of each compound, read-out: IC50 Values
Description: IC50 Assay of Thiocarbamate to OGT.
Enzyme activity was tested with the peptide-capture assay in the presence of different concentrations of each compound as previously reported (J. Am. Chem. Soc. 2005, 127, 14588-14589).

Row | Compound | OGT enzyme activity after preincubation with compound (OGT [1]; three-fold excess of compound, 5 min preincubation, then diluted 100-fold) | IC50 (OGT [2]) | inactivation time course of OGT (OGT [1]; 1.5:1 inhibitor:enzyme ratio)
1 | COc1ccc(OC(=O)n2c(=O)oc3cc(C(C)=O)ccc32)cc1 [Compound 1] | irreversible loss of enzyme activity |  | 
2 | COc1ccc(OC(=O)n2c(=O)oc3ccc(Cl)cc32)cc1 [Compound 3] |  | 18 µM | 
3 | O=C(Oc1ccccc1)n1c(=O)oc2cc([N+](=O)[O-])ccc21 [Compound 4] |  | 60 µM | 
4 | O=C(Oc1ccccc1)n1c(=O)oc2ccccc21 [Compound 5] |  | > 100 µM | 
5 | COc1ccc2c(c1)oc(=O)n2C(=O)Oc1ccccc1 [Compound 6] |  | ~100 µM | no inhibition

— patent US9573911B2, “Diphosphate mimetics and uses thereof” (President and Fellows of Harvard College, priority 2011, dated 2017)
